From PubChem BioAssay (NCI)
Several values for one entry are separate records, joined by “and”; a condition that tells them apart may be missing. Identical values can stand only once.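 The compound was tested at five concentrations on cells cultured in 96-well plates, with a 48-hour exposure period. The concentration for 50% growth inhibition is given as GI50. At the TGI there is no net growth.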

How the values were obtained:
Experiment in all cases: DTP human tumour cell line panel, 48 h
[1] = tested on: MDA-MB-435
[2] = tested on: K-562 leukemia
[3] = tested on: UO-31 renal
[4] = tested on: SK-MEL-5 melanoma
[5] = tested on: SN12C renal
[6] = tested on: MALME-3M melanoma
[7] = tested on: TK-10 renal
[8] = tested on: LOX IMVI melanoma
[9] = tested on: NCI-H460 lung
[10] = tested on: RPMI-8226 leukemia

Structure (SMILES) | GI50 [1] [µM] | TGI [1] | GI50 [2] [µM] | TGI [2] | GI50 [3] [µM] | TGI [3] [µM] | GI50 [4] [µM] | TGI [4] | GI50 [5] [µM] | TGI [5] | GI50 [6] [µM] | TGI [6] | GI50 [7] [µM] | TGI [7] | GI50 [8] [µM] | TGI [8] | GI50 [9] [µM] | TGI [9] [µM] | GI50 [10] [µM] | TGI [10] [µM]
O=C1NC(=O)C(=Cc2cn(Cc3ccccc3)c3ccccc23)C(=O)N1 | 17.9 | 42.3 µM | 4.23 | > 48.6 µM | 12 | 31 | 11.3 | > 55.5 µM | 13.5 | 40 µM | 18.1 | 45.7 µM | 2.16 | 8.58 µM | 14.1 | 33.1 µM | 0.264 | 13.4 | 8.23 | > 61.3
O=c1cc(-c2ccccc2)[nH]c2c1CCCC2 | 0.29 | 0.992 µM | 0.85 | > 100 µM | 5.49 | > 100 | 0.883 | 45.4 µM | 13.4 | > 100 µM | 3.48 | > 100 µM | 70.6 | > 100 µM | 5.88 | > 100 µM | 3.01 | > 100 | 4.67 | > 100
CN1CCN(CCCOc2ccc3nc(Nc4ccc(F)c(F)c4)ccc3c2)CC1 | 1.68 | 3.36 µM | 1.37 | 5.25 µM | 1.68 | 3.43 | 1.47 | 2.88 µM | 2.97 | 11.8 µM | 1.15 | 3.06 µM | 2 | 4.23 µM | 1.53 | 3.09 µM | 1.91 | 4.12 | 1.7 | 6.3
CN1CCN(Cc2ccc(NC(=O)c3[nH]ncc3Nc3ncnc4[nH]ccc34)cc2)CC1 | 0.298 | 1.71 µM | 0.265 | > 100 µM | 0.82 | 4.57 | 0.25 | 0.778 µM | 0.333 | > 100 µM | 0.472 | 0.959 µM | 0.562 | 2.37 µM | 0.201 | 0.759 µM | 0.328 | 4.67 | 2.43 | 6.59
COc1ccc2nc(C)cc(Sc3nc4ccccc4s3)c2c1 | 1.76 | 5.39 µM | 1.21 |  | 0.385 | 5.43 | 2.88 | 13.5 µM | 1.7 | 7.06 µM | 0.426 | 11.9 µM | 1.4 | 5.47 µM | 1.19 | 3.37 µM | 1.89 | 5.35 | 0.362 | 2.16
C=C(C)[C@@H]1CCc2c(O)c(O)c(=O)cc(C)c2C1 |  | > 100 µM |  | > 27.6 µM |  | > 25.5 |  | 3.49 µM |  | > 100 µM |  | 35 µM |  | 43.7 µM |  | > 100 µM |  | 3.54 |  | > 100
O=C1C=CC(=O)c2c1ccc1c3ccccc3n(Cc3ccccc3)c21 |  | > 56.8 µM |  | 10.6 µM |  | 50.1 |  | > 90 µM |  | 42.9 µM |  | 30.8 µM |  | 35.1 µM |  | 52.3 µM |  | > 100 |  | 34.6
COc1cc(C)cc(C(=O)/C=C/c2ccccc2)c1O |  | 83.6 µM |  | > 100 µM |  | 32.4 |  | 40.4 µM |  | 34 µM |  |  |  | 35.8 µM |  | 34.8 µM |  | 44.7 |  | 63.3
COc1cc(/C=C/C(=O)CC(=O)/C=C/c2cc(OC)c(O)c(OC)c2)cc(OC)c1O |  | 16.3 µM and 24 µM |  | 25 µM and > 100 µM | 41.2 | > 100 | 13.2 | 25 µM and 36.4 µM | 57.3 | 23.7 µM and > 100 µM | 14.8 | 25 µM and 30.6 µM | 34.2 | 25 µM and > 100 µM | 15.8 | 25 µM and 66.3 µM |  | > 100 |  | 30.8
C=C(C(=O)OC)[C@@H]1CC2OC1C(=O)C(C)CCC/C(C)=C/CC[C@@]2(C)O (stereo not given in full) | 25.9 | 79.4 µM | 18.9 | 43.4 µM | 16.4 | 31.2 | 37 | > 100 µM | 31.3 | 91.5 µM | 10.9 | 31.1 µM | 20.8 | 71.1 µM | 20.2 | 57.2 µM | 50.5 | > 100 | 16.8 | 61.2
CC12CCC(=O)C(O1)C1C(=O)c3ccc4c(ccc5ccccc54)c3C(=O)C12 (stereo not given) | 13 | 26.4 µM | 1.72 | 7.3 µM | 6.69 |  | 1.63 | 3.3 µM | 5.42 | 10.3 µM | 0.945 | 4.4 µM | 3.47 | 7.89 µM | 0.477 | 3.57 µM | 4.84 | 11.8 | 1.21 | > 21.5
CC(C)=Cc1cc(CCC/C(C)=C/Cc2c(O)cc(C)c(C(=O)O)c2O)co1 |  | > 100 µM |  | > 100 µM |  | > 100 |  | > 100 µM |  | > 100 µM |  |  |  | > 100 µM |  | > 100 µM |  | > 100 |  | > 100
NC(N)=NC(N)=Nc1ccc(C(=O)O)cc1 |  | > 100 µM |  | > 100 µM |  | > 100 |  | > 100 µM |  | > 100 µM |  | > 100 µM |  | > 100 µM |  | > 100 µM |  | > 100 |  | > 100
CC1CCCC(C#N)(NOC2=NCCN2)C1 (stereo not given) | 35.4 | > 100 µM | 17.4 | 61.5 µM | 31.8 | > 100 | 14.9 | 34.2 µM | 26.5 | > 100 µM |  |  | 12.9 | 46.2 µM | 12.7 | 25.4 µM | 43.3 | > 100 | 38 | > 100
